Patent publication US20260294915A1, “COMBINATION THERAPY COMPRISING A MAT2A INHIBITOR AND A TOPOISOMERASE INHIBITOR, A SPLICING INHIBITOR SULFONAMIDE, OR A KIF18 INHIBITOR” (IDEAYA BIOSCIENCES, INC., priority 2023, published 2026)
Structures can show the parent of a compound that is named as a salt.

Legend:
SW900 = assay: 10-day proliferation (CTG), equimolar Compound A + SPLAM (Example 4); type: cell-based; conditions: single agent or 1:1 combo
Procedure: (§1) A 10-day proliferation assay was performed in a panel of 5 MTAP-deficient and 2 wild type non-small cell lung and bladder cancer cell lines. Optimal cell seeding for all cell lines was determined by assessing the growth over a range of seeding densities in a 384-well format to identify conditions that permitted proliferation for 10 days. Cells were then plated at the optimal seeding density and treated with 20-point, two-fold dilution series of Compound A, the splicing inhibitor sulfonamide (SPLAM), or an equimolar combination of Compound A and the SPLAM. Combinations tested included Compound A in combination with four structurally different SPLAMs. Concentrations tested for Compound A and each SPLAM alone or in combination ranged from 0.04 nM to 20,000 nM. A plate of cells was harvested at the time of compound addition to quantify the number of cells at the start of the combination (T0). For cell quantification, the harvested cells were lysed with Promega CellTiter-Glo (CTG) reagent according to the manufacturer's protocol and the chemiluminescent signal was detected on a Synergy Neo plate reader. CTG estimates cell number through detection of cellular ATP levels. Cells were incubated with the drug combinations at 37° C. with 5% CO2 for 10 days. Cells were then lysed with CTG and the chemiluminescent signal was measured.
(§2) CTG values obtained after the 10-day treatment were background subtracted and expressed as a percent of the T0 value. Data were plotted against compound concentration and fit with a four-parameter equation to generate dose response curves for each single agent and the equimolar combination. Growth ICx (gICx) values ranging from gIC30 to gIC100 were interpolated from the fitted curves. Synergistic growth inhibition was assessed by determination of Combination Index (CI) values at these various points across the titration using the mutually non-exclusive equation [Chou, 1983; Chou, 1981] shown below where A equals the gICx value of Compound A, B equals the gICx value of the SPLAM, and A+B or B+A equals the gICx value of the equimolar combination. A Combination Index value less than 1.0 was considered synergistic.

NCI-H838 = assay: as above; type: cell-based; conditions: single agent or 1:1 combo
Procedure: as §1, §2

NCI-H520 = assay: as above; type: cell-based; conditions: single agent or 1:1 combo
Procedure: as §1, §2

TCCSUP = assay: as above; type: cell-based; conditions: single agent or 1:1 combo
Procedure: as §1, §2

UMUC5 = assay: as above; type: cell-based; conditions: single agent or 1:1 combo
Procedure: as §1, §2

UMUC11 = assay: as above; type: cell-based; conditions: single agent or 1:1 combo
Procedure: as §1, §2

RT112/84 = assay: as above; type: cell-based; conditions: single agent or 1:1 combo
Procedure: as §1, §2

[1] = test system: LMSU (RCB1062) human gastric tumor cell-derived xenograft (CDX) models; assay: Anti-tumor activity in LMSU gastric mouse xenograft (CDX) model (Example 9); type: in vivo; conditions: 3 days on/4 days holiday; for Day 11 TV (mean): initial TV 185, vehicle 1018
Procedure: (§3) All mouse studies were approved by the Institutional Animal Care and Use Committee (IACUC) based on guidelines from the National Institutes of Health (NIH). Mice were maintained under pathogen-free conditions, and food and water were provided ad libitum.
(§4) The anti-tumor effect of Compound A and irinotecan hydrochloride as single-agents or in combination was assessed in the LMSU (RCB1062) human gastric tumor cell-derived xenograft (CDX) models. LMSU was expanded in HamF10 with 10% fetal bovine serum. Cells were free of mycoplasma and authenticated by STR profiling, and ten million cells in log growth phase were resuspended in Hanks Balanced Salt Solution containing 50% Matrigel and implanted subcutaneously into the flank of each recipient female Crl:NU-Foxn1nu mouse. Mice were housed in microisolator cages with corn cob bedding with additional enrichment consisting of sterile nesting material (Innovive) and Bio-huts (Bio-Serv). Water (Innovive) and diet (Teklad Global 19% Protein Extruded Diet 2919, Irradiated) were provided ad libitum. The environment was maintained on a 12-hour light cycle at approximately 68-72° F. and 40-60% relative humidity.
(§5) Tumor Volume (TV) was calculated using the following formula: TV (mm^3)=(width×width×length)/2. Tumor growth inhibition (TGI) was calculated by [(TV controlfinal−TV treatedfinal)/(TV controlfinal−TV controlinitial)×100]. TV was analyzed for statistical significance utilizing GraphPad Prism version 10.2.2. Repeated Measures 2-Way ANOVA with Dunnet's Multiple Comparisons was utilized, and P-values were derived from data collected on the date of Vehicle group termination and were considered statistically significant if less than 0.05.
(§6) Mean tumor volume at dosing start was approximately 185 mm^3, with seven mice randomized to each treatment group. Mice were dosed orally, once per day, with Vehicle, Compound A at 10 mg/kg, or dosed for 3 consecutive days followed by 4 days holiday by intraperitoneal (IP) injection of Compound B at 5 mg/kg or 10 mg/kg, or combination of Compound A and Compound B. The vehicle group was a combination of Vehicle A (for Compound A, 0.5% 400 cps methylcellulose with 0.5% Tween-80 in sterile water) and Vehicle B (for irinotecan hydrochloride, Saline).

[2] = test system: RT112/84 human bladder tumor cell-derived xenograft (CDX) model; assay: Anti-tumor activity in RT112/84 mouse xenograft (CDX) model (Example 7); type: in vivo
Procedure: as §3
The anti-tumor effect of Compound A and irinotecan hydrochloride as single-agents or in combination was assessed in the RT112/84 human bladder tumor cell-derived xenograft (CDX) model. Cells were expanded in RPMI-1640 (Gibco, Catalog Number 11875093) with 10% fetal bovine serum. These cells were free of mycoplasma and authenticated by STR profiling. Five million cells in log growth phase were resuspended in Hanks Balanced Salt Solution containing 50% Matrigel and implanted subcutaneously into the flank of each recipient female Crl:NU-Foxnlnu mouse. Mice were housed in microisolator cages with corn cob bedding with additional enrichment consisting of sterile nesting material (Innovive) and Bio-huts (Bio-Serv). Water (Innovive) and diet (Teklad Global 19% Protein Extruded Diet 2919, Irradiated) were provided ad libitum. The environment was maintained on a 12-hour light cycle at approximately 68-72° F. and 40-60% relative humidity.
as §5, with “10.0.3.” for “10.2.2.”, “Tukey's” for “Dunnet's”, “Day 14 (date” for “the date”, “termination)” for “termination”, “0.05. Tumor regression was calculated by using the percent change in tumor volume from the final tumor volume measurement from Day 73 when compared to the initial tumor volume from Day 1. Tumor regression was defined as reduced TV on Day 73 compared to Day 1. Tumor regression rate was defined as the percentage of animals per group with tumor regression.” for “0.05.”
as §6, with “249” for “185”, “ten” for “seven”, “5” for “5 mg/kg or 10”

[3] = test system: MKN45 (RCB1001) human gastric tumor cell-derived xenograft (CDX) model; assay: Anti-tumor activity in MKN45 gastric mouse xenograft (CDX) model (Example 8); type: in vivo; conditions: 3 days on/4 days holiday
Procedure: as §3
as §4, with “MKN45 (RCB1001)” for “LMSU (RCB1062)”, “model. MKN45” for “models. LMSU”, “RPMI1640” for “HamF10”
as §5
as §6, with “190” for “185”, “six” for “seven”

[4] = irinotecan hydrochloride 5 mg/kg IP
[5] = irinotecan hydrochloride 10 mg/kg IP
[6] = irinotecan hydrochloride 5 mg/kg IP, 3 days on/4 days holiday

For `O=C(NS(=O)(=O)c1ccc(Br)s1)c1ccc(Cl)cc1Cl` [Tasisulam, N-((5-bromothiophen-2-yl)sulfonyl)-2,4-dichlorobenzamide], the IC50 (SW900; Homo sapiens, SW900, read-out: gIC50) was 20 µM, the gIC30 (SW900) was 20 µM and the gIC40 (SW900) was 20 µM. It also gave a gIC60 (SW900) of 20 µM, a gIC70 (SW900) of 20 µM and a gIC100 (SW900) of 20 µM. For the same molecule, the IC80 (SW900; 14400 min, read-out: gIC80) was 20 µM, the IC90 (SW900; 14400 min, read-out: gIC90) was 20 µM and the IC50 (NCI-H838; Homo sapiens, NCI-H838, read-out: gIC50) was 4.93 µM. The gIC30 (NCI-H838) was 7.419 µM, the gIC40 (NCI-H838) was 4.551 µM and the gIC60 (NCI-H838) was 5.372 µM. The gIC70 (NCI-H838) was 5.923 µM, the gIC100 (NCI-H838) was 20 µM and the IC80 (NCI-H838; 14400 min, read-out: gIC80) was 6.69 µM. For the same molecule, the IC90 (NCI-H838; 14400 min, read-out: gIC90) was 7.97 µM, the IC50 (NCI-H520; Homo sapiens, NCI-H520, read-out: gIC50) was 11.2 µM and the gIC30 (NCI-H520) was 9.551 µM. The gIC40 (NCI-H520) was 10.354 µM, the gIC60 (NCI-H520) was 12.274 µM and the gIC70 (NCI-H520) was 13.716 µM. It also gave a gIC100 (NCI-H520) of 20 µM, an IC80 (NCI-H520; 14400 min, read-out: gIC80) of 16.4 µM and an IC90 (NCI-H520; 14400 min, read-out: gIC90) of 12 µM. For the same molecule, the IC50 (TCCSUP; Homo sapiens, TCC-SUP, read-out: gIC50) was 20 µM, the gIC30 (TCCSUP) was 20 µM and the gIC40 (TCCSUP) was 20 µM. The gIC60 (TCCSUP) was 20 µM, the gIC70 (TCCSUP) was 20 µM and the gIC100 (TCCSUP) was 20 µM. For the same molecule, the IC80 (TCCSUP; 14400 min, read-out: gIC80) was 20 µM, the IC90 (TCCSUP; 14400 min, read-out: gIC90) was 20 µM and the gIC30 (UMUC5) was 16.121 µM. For the same molecule, the gIC40 (UMUC5) was 16.834 µM, the gIC60 (UMUC5) was 18.053 µM and the gIC70 (UMUC5) was 18.592 µM. For the same molecule, the gIC100 (UMUC5) was 20 µM, the IC80 (UMUC5; 14400 min, read-out: gIC80) was 19.1 µM and the IC90 (UMUC5; 14400 min, read-out: gIC90) was 19.6 µM. For the same molecule, the IC50 (UMUC5; read-out: gIC50) was 17.5 µM, the gIC30 (UMUC11) was 17.77 µM and the gIC40 (UMUC11) was 18.358 µM. The gIC60 (UMUC11) was 19.349 µM, the gIC70 (UMUC11) was 19.781 µM and the gIC100 (UMUC11) was 20 µM. It also gave an IC80 (UMUC11; 14400 min, read-out: gIC80) of 20 µM, an IC90 (UMUC11; 14400 min, read-out: gIC90) of 20 µM and an IC50 (UMUC11; read-out: gIC50) of 18.9 µM. The IC50 (RT112/84; Homo sapiens, RT112/84, read-out: gIC50) was 20 µM, the gIC30 (RT112/84) was 20 µM and the gIC40 (RT112/84) was 20 µM. For the same molecule, the gIC60 (RT112/84) was 20 µM, the gIC70 (RT112/84) was 20 µM and the gIC100 (RT112/84) was 20 µM. The IC80 (RT112/84; 14400 min, read-out: gIC80) was 20 µM and the IC90 (RT112/84; 14400 min, read-out: gIC90) was 20 µM.

`CCc1c2c(nc3ccc(OC(=O)N4CCC(N5CCCCC5)CC4)cc13)-c1cc3c(c(=O)n1C2)COC(=O)[C@]3(O)CC` [irinotecan hydrochloride] was tested, and the “Day 11 TGI” value [1, 4] was 42%, the “Tumor Regression Rate on Day 11” value [1, 4] was 0% and the “Day 11 TV (mean)” value [1, 4] was 671 mm^3. The “Day 11 TGI” value [1, 5] was 80%, the “Tumor Regression Rate on Day 11” value [1, 5] was 14% and the “Day 11 TV (mean)” value [1, 5] was 353 mm^3. The TGI ([2]; Compound A 10 mg/kg oral once per day, irinotecan 5 mg/kg IP 3 days on/4 days off) was 83%, the “response rate (mice with tumor regressions)” value ([2]; day 73, Compound A 10 mg/kg oral, irinotecan 5 mg/kg IP) was 30% and the “Day 14 TGI” value [2, 6] was 83%. The “Tumor Regression Rate on Day 73” value [2, 6] was 30%, the “Day 14 TV (mean)” value ([2]; irinotecan hydrochloride 5 mg/kg IP, 3 days on/4 days holiday, initial TV 249, vehicle 1069) was 387 mm^3 and the “Day 25 TGI” value [3, 4] was 49%. The “Tumor Regression Rate on Day 25” value [3, 4] was 0%, the “Day 25 TV (mean)” value ([3]; irinotecan hydrochloride 5 mg/kg IP, initial TV 190, vehicle 1396) was 807 mm^3 and the “Day 25 TGI” value [3, 5] was 85%. For the same molecule, the “Tumor Regression Rate on Day 25” value [3, 5] was 17% and the “Day 25 TV (mean)” value ([3]; irinotecan hydrochloride 10 mg/kg IP, initial TV 192, vehicle 1396) was 369 mm^3.
